{
  "source": "paper PMC7998760",
  "about": "“Solubility, Permeability, Anti-Inflammatory Action and In Vivo Pharmacokinetic Properties of Several Mechanochemically Obtained Pharmaceutical Solid Dispersions of Nimesulide” (Molecules, 2021)",
  "key": {"histamine edema": {"test_system": "histamine edema", "test": "Anti-inflammatory study, histamine edema model", "assay_type": "in vivo, CD-1 mice", "conditions": "oral single administration, doses 5, 10, 20 mg/kg of NIM, p < 0.05 compare to control", "procedure": "(§1) CD-1 mice weighing 20–25 g were obtained from the vivarium of the Institute of Cytology and Genetic SB RAS. Animals were kept under standard conditions with free access to water and food with humidity and temperature-controlled rooms with light and dark 12 h cycles.\n“Histamine swelling” was reproduced by introducing of 0.05 mL of 0.1% histamine solution under aponeurosis of the hind paw. The test compounds were administered by oral gavage 1 h before administration of inflammatory agent. The swelling degree was evaluated after 5 h by comparison the legs mass with inflammatory agent (m1) and without it (m2). The degree of inflammation (ID) for each mouse was calculated by the following formula (Equation (6)): (6) ID=m1−m2/m2×100%\nThe statistical analysis was performed using Mann–Whitney U test. Data shown as Mean ± SEM. p < 0.05 was considered to be statistically significant."}, "[1]": {"conditions": "alcohol solution, 400 nm"}, "[2]": {"procedure": "In this study, the stability constant and stoichiometry of the complex were calculated using Benesi-Hildebrant diagram (Equation (1)):Δδmax/Δδ − 1 = 1/[CD]^n × 1/K(1) where K is the stability constant of the complex, and Δδ is change of chemical shift.\nMeasurement of K values at different temperatures at 30–50 °C allows us to calculate the thermodynamic parameters of the HP-β-CD complex. From the dependence of R × lnK vs. 1/T using formulas (Equation (2)) and (Equation (3)), one can calculate the main thermodynamic parameters of complexation: the change in the Gibbs energy, enthalpy, and entropy:R × lnK = −ΔH^0/T + ΔS^0(2) ΔG^0 = ΔH^0 − TΔS^0(3)\n^1H-NMR spectra were recorded on an Avance III 500 MHz spectrometer (Bruker, Rheinstetten, Germany) in D2O and CD3OD (99.8%, Sigma-Aldrich, Moscow, Russia) solutions as well as in their mixture. Spin-spin relaxation time T2 was measured by the Carr-Purcell-Meiboom-Gill (CPMG) pulse sequence."}, "[3]": {"test": "Pharmacokinetic study after a single per os administration", "assay_type": "in vivo, CD-1 mice", "procedure": "as §1\nMice were randomized by weight and divided into groups and deprived of food for 12 h prior to the experiment. […] Complexes were dissolved in distilled water. […] Blood samples were withdrawn after decapitation at 5, 15, 30, 45, 60, 90 120, 180 and 300 min (n = 5 for each time point) after introduction. Then, all the blood samples were centrifuged for 15 min at 1640× g and the supernatant serum fraction was transferred to empty tubes and kept frozen at −20 °C prior to analysis. The preparation of a blood sample was carried out according to the method described by. Briefly, the mouse plasma sample (0.2 mL) was transferred into glass test tube. 3 mL mixture solvent of ethyl acetate and hexane (90:10%, v/v) was added to the tubes and was vortexed for 3 min. Following a centrifugation for 7 min, 1.5 mL of organic phase was removed to another tube and evaporated. The dry residue was reconstituted with 100 μL of acetonitrile, vortexed for 30 s and 20 μL of the mixture was injected into the chromatograph. However, in contrast with noted reference we use HPLC conditions as described in HPLC analyses of this section."}, "[4]": {"conditions": "CD-1, mouse, serum, oral, 20 mg/kg"}, "[5]": {"conditions": "single per os, NIM dose 20 mg/kg, mice"}},
  "data": [
    {"smiles": "CS(=O)(=O)Nc1ccc([N+](=O)[O-])cc1Oc1ccccc1", "note": "[NIM, N-(4-nitro-2-phenoxyphenyl)methanesulfonamide]", "values": [
      {"measurement": "dose of NIM with significant anti-inflammatory effect", "setting": "histamine edema", "result": 20, "unit": "mg/kg"},
      {"measurement": "stability constant of the chelate complex with magnesium ions", "setting": "[1]", "result": "22,300 ± 7400 M^−1"},
      {"measurement": "stability constant of the complex with HP-β-CD, cycle A", "setting": "[2]; 30 °C, 1:1 complex", "result": 140, "unit": "M⁻¹"},
      {"measurement": "stability constant of the complex with HP-β-CD, cycle B", "setting": "[2]; 30 °C, 1:1 complex", "result": 490, "unit": "M⁻¹"},
      {"measurement": "TΔS^0 of complexation with HP-β-CD, cycle A", "setting": "[2]; 303 K", "result": "-6.7 ± 0.3", "unit": "kcal/mol"},
      {"measurement": "TΔS^0 of complexation with HP-β-CD, cycle B", "setting": "[2]; 303 K", "result": "-8.2 ± 0.5", "unit": "kcal/mol"},
      {"measurement": "ΔG^0 of complexation with HP-β-CD, cycle B", "setting": "[2]; 303 K", "result": -3.0, "unit": "kcal/mol"},
      {"measurement": "ΔH^0 of complexation with HP-β-CD, cycle A", "setting": "[2]; 303 K", "result": "-10.5 ± 0.5", "unit": "kcal/mol"},
      {"measurement": "ΔH^0 of complexation with HP-β-CD, cycle B", "setting": "[2]; 303 K", "result": "-12.2 ± 1.0", "unit": "kcal/mol"},
      {"measurement": "Tmax", "setting": "[3]; [4]", "result": 0.572, "unit": "h"},
      {"measurement": "half-life", "setting": "[3]; [4]", "result": "1.48 ± 0.347", "unit": "h"},
      {"measurement": "AUC 0-inf_obs", "setting": "[3]; [5]", "result": "3978.88 ± 242.62", "unit": "mkg/mL*min"},
      {"measurement": "Cmax", "setting": "[3]; [5]", "result": "38.43 ± 3.25", "unit": "mkg/mL"}
    ]}
  ]
}
